Tests used:
Experiment in all cases: Enzyme Assay
[1] = target: PIK3CB (Human) (UniProt P42338)
[2] = target: PIK3CD (Human) (UniProt O00329)
[3] = target: PIK3CA (human) (UniProt P42336)
[4] = target: PIK3CG (human) (UniProt P48736)
Chain of PIK3CG (human) (P48736 whole entry, looked up): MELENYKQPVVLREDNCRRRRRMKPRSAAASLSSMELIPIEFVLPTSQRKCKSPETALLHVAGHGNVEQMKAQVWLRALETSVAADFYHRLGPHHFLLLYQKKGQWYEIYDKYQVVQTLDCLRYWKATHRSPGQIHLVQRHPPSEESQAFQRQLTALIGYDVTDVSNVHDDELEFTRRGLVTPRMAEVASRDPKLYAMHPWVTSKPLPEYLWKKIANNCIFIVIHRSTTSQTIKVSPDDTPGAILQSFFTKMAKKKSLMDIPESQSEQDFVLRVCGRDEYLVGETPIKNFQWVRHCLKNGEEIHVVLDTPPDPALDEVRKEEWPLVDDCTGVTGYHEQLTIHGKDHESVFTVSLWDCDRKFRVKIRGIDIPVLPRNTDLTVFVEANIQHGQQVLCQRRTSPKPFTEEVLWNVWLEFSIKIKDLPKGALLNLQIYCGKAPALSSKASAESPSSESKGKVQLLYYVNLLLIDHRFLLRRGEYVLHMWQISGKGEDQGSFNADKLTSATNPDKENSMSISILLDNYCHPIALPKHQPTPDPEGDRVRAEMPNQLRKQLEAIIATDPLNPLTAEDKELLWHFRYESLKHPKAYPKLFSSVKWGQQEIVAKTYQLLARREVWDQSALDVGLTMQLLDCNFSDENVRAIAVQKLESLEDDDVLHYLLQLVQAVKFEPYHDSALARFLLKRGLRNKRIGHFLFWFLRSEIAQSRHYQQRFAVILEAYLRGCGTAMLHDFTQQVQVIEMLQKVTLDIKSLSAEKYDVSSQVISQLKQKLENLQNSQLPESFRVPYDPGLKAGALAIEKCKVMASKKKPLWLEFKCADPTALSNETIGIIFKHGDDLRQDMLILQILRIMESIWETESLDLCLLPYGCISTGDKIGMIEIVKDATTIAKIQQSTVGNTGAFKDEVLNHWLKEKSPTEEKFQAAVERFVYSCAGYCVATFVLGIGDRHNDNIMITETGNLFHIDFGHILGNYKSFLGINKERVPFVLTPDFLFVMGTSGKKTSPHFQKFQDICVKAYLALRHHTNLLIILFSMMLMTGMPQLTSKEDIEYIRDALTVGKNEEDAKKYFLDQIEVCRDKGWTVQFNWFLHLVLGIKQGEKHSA

Chain of PIK3CB (Human) (P42338 whole entry, looked up): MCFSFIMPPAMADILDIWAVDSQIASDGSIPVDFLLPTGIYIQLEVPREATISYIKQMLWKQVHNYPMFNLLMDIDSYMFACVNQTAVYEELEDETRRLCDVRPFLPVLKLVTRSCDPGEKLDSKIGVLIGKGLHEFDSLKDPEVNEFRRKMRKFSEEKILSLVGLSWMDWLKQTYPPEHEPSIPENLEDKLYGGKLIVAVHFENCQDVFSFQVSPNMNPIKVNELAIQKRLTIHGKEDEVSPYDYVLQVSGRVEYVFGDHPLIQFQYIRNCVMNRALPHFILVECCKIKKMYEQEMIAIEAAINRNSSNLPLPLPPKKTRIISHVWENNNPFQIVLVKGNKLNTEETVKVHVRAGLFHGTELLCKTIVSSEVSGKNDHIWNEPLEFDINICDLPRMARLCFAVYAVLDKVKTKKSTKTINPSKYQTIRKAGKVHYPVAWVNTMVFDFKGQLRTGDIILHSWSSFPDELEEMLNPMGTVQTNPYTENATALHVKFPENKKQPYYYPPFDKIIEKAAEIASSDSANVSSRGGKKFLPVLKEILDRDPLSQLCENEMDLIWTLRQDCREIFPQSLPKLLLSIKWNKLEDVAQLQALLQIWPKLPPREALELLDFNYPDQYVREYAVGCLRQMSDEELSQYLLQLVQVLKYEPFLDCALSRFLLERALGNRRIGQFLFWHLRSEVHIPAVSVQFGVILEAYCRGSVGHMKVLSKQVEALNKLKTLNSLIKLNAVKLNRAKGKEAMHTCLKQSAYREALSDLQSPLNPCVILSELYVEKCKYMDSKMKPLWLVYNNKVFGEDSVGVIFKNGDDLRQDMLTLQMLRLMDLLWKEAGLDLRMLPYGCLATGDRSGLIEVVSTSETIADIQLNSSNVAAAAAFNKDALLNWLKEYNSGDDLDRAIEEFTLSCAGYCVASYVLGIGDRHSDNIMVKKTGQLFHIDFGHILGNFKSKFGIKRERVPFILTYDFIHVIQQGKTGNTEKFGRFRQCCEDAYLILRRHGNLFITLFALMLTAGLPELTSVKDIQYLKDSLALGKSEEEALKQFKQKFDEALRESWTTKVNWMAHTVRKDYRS
Chain of PIK3CD (Human) (O00329 whole entry, looked up): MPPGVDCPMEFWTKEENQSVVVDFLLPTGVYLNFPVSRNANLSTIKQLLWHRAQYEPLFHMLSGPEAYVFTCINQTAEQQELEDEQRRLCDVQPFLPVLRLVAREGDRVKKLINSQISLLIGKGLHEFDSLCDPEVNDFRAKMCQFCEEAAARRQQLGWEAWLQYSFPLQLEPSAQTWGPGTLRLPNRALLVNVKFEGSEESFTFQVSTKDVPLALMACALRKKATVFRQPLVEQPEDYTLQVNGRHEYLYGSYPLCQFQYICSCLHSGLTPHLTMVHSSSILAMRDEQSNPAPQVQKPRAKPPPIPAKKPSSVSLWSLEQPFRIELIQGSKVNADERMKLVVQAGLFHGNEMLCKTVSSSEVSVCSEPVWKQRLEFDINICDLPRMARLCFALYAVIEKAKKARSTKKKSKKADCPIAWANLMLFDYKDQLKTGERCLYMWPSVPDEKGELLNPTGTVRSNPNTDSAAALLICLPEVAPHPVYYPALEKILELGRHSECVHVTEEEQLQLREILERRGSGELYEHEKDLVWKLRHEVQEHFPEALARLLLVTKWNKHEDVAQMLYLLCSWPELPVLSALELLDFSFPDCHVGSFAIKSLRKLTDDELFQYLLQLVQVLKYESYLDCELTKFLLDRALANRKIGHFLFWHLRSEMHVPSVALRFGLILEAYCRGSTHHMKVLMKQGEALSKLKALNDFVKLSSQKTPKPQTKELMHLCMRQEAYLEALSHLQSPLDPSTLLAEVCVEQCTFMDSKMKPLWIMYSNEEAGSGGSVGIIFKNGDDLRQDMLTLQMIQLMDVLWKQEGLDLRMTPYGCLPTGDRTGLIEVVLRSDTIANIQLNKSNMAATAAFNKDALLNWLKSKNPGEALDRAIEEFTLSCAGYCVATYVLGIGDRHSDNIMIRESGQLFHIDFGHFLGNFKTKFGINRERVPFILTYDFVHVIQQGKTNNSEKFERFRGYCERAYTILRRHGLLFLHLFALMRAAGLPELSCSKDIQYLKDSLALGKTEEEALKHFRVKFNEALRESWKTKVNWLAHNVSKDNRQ
Chain of PIK3CA (human) (P42336 whole entry, looked up): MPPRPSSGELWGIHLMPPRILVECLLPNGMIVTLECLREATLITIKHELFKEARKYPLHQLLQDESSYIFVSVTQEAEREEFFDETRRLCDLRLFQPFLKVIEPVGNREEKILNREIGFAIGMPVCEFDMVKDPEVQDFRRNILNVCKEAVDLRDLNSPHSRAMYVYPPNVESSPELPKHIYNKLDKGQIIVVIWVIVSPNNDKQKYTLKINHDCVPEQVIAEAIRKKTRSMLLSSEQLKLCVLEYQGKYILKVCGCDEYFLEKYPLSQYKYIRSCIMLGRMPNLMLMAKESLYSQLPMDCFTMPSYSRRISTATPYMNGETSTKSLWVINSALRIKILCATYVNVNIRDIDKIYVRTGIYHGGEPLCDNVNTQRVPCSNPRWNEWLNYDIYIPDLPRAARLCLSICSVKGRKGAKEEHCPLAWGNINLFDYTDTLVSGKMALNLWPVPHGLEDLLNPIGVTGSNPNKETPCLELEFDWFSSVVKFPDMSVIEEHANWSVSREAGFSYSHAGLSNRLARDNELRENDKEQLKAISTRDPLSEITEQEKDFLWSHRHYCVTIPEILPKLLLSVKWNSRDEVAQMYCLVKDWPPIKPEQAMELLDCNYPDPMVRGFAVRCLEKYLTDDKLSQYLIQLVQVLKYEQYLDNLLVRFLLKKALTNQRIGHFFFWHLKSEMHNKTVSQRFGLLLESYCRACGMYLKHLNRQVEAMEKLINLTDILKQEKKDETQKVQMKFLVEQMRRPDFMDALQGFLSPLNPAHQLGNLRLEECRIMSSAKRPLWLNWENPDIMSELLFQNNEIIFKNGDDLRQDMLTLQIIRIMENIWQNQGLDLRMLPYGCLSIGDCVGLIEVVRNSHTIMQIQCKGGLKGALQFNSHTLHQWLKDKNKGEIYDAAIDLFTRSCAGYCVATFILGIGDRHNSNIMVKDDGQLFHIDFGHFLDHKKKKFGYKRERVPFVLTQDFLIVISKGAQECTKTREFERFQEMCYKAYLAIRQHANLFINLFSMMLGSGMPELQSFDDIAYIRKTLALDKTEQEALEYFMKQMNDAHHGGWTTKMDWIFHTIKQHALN

| SMILES | IC50 [1] | IC50 [2] | IC50 [3] | IC50 [4] |
| --- | --- | --- | --- | --- |
| CC(C)(O)CNc1ncc(-c2ccnc(Nc3ccnc(Cl)c3)n2)c(CC2CC2)n1 | – | – | – | 2 µM |
| C[C@H](Nc1ncnc2nc[nH]c12)c1nc2ccc(F)cc2c(=O)n1-c1ccccc1 | – | 0.012 µM | 5.44 µM | 1.39 µM |
| O=C1NC(=O)/C(=C/c2ccc(-c3ccc(F)cc3O)o2)S1 | > 20 µM | > 20 µM | 1.07 µM | – |
| Cc1ccccc1Oc1cccc2c(=O)cc(N3CCOCC3)[nH]c12 | 0.13 µM | 0.63 µM | 61 µM | > 100 µM |
| Nc1ncc(-c2ccnc(Nc3ccncc3)n2)c(CC2CC2)n1 | – | 1.2 µM | 3.96 µM | 3.04 µM |
| CN(CCO)S(=O)(=O)c1cncc(-c2ccc3nc(NC(=O)NCCc4noc(C(C)(C)C)n4)sc3c2)c1 | 0.062 µM | 0.166 µM | 1.68 µM | 0.003 µM |

The remaining lines, values ahead:

| IC50 [1] | IC50 [2] | IC50 [3] | IC50 [4] | SMILES |
| --- | --- | --- | --- | --- |
| 1.1 µM | 8.2 µM | > 10 µM | 0.027 µM | CC(C)(C)NS(=O)(=O)c1cncc(-c2cc(F)c3nc(N)nn3c2)c1 |
| 2.65 µM | 0.005 µM | 0.91 µM | > 1000 µM | Fc1ccc2[nH]ccc2c1-c1nc(N2CCOCC2)c2sc(CN3CCN(CC4CC4)CC3)cc2n1 |
| > 10 µM | > 10 µM | – | > 10 µM | C[C@@H]1COCCN1c1cc(=O)n2c(n1)N(Cc1cncc(Cl)c1)[C@H](C(F)(F)F)CC2 |

From the Kinase Knowledgebase extract (Sharma et al. 2016)
